Counter-ions that a name gives are not always drawn.

The first test deals with T1, Proton Pump (H^+,K^+-ATPase) (Sus scrofa, UniProt P19156).
T1 construct: gastric vesicles were isolated from porcine stomachs; from tissue; host or cells: porcine stomach (gastric vesicles)
T1 sequence (P19156 2-1034 limits assumed): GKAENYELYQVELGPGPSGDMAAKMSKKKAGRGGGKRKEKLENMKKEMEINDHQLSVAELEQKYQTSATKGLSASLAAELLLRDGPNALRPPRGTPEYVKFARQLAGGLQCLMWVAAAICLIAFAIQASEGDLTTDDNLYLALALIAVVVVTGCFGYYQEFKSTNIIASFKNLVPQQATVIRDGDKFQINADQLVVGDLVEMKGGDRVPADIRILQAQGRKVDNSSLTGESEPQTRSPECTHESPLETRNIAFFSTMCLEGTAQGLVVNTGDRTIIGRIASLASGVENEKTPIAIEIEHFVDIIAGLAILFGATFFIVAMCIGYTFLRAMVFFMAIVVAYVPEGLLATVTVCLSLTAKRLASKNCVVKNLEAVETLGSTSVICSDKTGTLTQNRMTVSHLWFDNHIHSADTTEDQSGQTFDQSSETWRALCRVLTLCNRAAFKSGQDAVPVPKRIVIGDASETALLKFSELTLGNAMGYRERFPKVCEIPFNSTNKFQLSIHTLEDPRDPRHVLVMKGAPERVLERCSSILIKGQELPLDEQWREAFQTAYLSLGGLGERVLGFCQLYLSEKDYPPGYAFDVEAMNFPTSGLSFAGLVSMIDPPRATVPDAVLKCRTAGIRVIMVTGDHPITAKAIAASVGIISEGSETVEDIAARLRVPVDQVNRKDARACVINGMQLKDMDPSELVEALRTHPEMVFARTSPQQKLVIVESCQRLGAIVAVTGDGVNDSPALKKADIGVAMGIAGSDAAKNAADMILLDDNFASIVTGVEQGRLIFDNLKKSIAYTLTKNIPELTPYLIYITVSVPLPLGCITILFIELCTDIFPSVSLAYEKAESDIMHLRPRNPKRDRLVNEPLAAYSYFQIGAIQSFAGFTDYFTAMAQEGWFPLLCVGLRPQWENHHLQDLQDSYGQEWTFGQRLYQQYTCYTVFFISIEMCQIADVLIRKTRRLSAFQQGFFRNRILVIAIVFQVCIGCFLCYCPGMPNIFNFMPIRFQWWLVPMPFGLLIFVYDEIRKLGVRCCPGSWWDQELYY
T1 sequence (P18434 whole entry partner): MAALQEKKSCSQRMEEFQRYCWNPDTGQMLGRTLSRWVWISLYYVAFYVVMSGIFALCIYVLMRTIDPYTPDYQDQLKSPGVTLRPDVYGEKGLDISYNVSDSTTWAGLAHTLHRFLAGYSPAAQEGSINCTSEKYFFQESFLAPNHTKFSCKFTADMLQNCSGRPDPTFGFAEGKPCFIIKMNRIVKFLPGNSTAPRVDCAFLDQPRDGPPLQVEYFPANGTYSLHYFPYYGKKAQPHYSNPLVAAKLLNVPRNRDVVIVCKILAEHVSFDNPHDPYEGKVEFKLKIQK
The test can be described thus: Inhibitory activity on proton pump (H+,K+-ATPase) activity, porcine gastric vesicles, malachite green readout. The test is classed as biochemical. The conditions noted are these: porcine gastric vesicles, pH 6.5, 8 mM KCl, 0.2 mM ATP. The procedure: Specifically, gastric vesicles were isolated from porcine stomachs, and the protein content of the vesicles was quantified using a BSA kit (Bio-Rad, 5000205). All reactions were performed in 96-well plates with a reaction volume of […] containing 100 ng of vesicles. 10 mM valinomycin and the test compound were added to reaction buffer (50 mM Tris-HEPES, 5 mM MgCl2, 8 mM KCl, pH 6.5) containing porcine gastric vesicles at various concentrations, and the mixture was incubated at 37°C for 30 minutes. DMSO or test compounds at different concentrations were added after diluting them to a final DMSO concentration of 0.1%. 0.2 mM adenosine triphosphate (ATP) was then added to the reaction buffer and incubated at 37°C for 20 minutes. The reaction was stopped with 0.2% Tween 20, followed by the addition of malachite green (Sigma Aldrich, MAK307) and incubation at room temperature for 30 minutes. The optical density (OD) value was measured at 620 nm using a microplate reader (Spectramax M5e, Molecular devices). The percent (%) inhibition was derived from the OD values of the control group and various concentrations of the test compounds. The IC50 of the test compounds was analyzed using nonlinear regression using the GraphPad Prism8 program using the % inhibition value at each concentration.
Turning to `Cc1cccc(C)c1CNc1cc(Br)cn2c(C)c(C)nc12` [Comparative Example 1, reference compound], the IC50 is 100 to 500 nM. For `COC(=O)c1cc(NCc2c(C)cccc2C)c2nc(C)c(C)n2c1` [Comparative Example 2, reference compound], the IC50 is more than 500 nM. Still for that read-out and setting: the result for `Cc1cccc(C)c1CNc1cc(NC(=O)C2CCCC2)cn2c(C)c(C)nc12` [Example 1, N-(8-((2,6-dimethylbenzyl)amino)-2,3-dimethylimidazo[1,2-a]pyridin-6-yl)cyclopentanecarboxamide] reads 100 to 500 nM; that for `Cc1cccc(C)c1CNc1cc(NC(=O)C2CC2)cn2c(C)c(C)nc12` [Example 2, N-(8-((2,6-dimethylbenzyl)amino)-2,3-dimethylimidazo[1,2-a]pyridin-6-yl)cyclopropanecarboxamide], 100 to 500 nM. The same measure, in the same setting: the result for `Cc1cccc(C)c1CNc1cc(NC(=O)C2CCCCC2)cn2c(C)c(C)nc12` [Example 3, N-(8-((2,6-dimethylbenzyl)amino)-2,3-dimethylimidazo[1,2-a]pyridin-6-yl)cyclohexanecarboxamide] reads more than 500 nM; that for `Cc1cccc(C)c1CNc1cc(NC(=O)C2CCC2)cn2c(C)c(C)nc12` [Example 5, N-(8-((2,6-dimethylbenzyl)amino)-2,3-dimethylimidazo[1,2-a]pyridin-6-yl)cyclobutanecarboxamide], 100 to 500 nM; that for `Cc1cccc(C)c1CNc1cc(NC(=O)N2CCC2)cn2c(C)c(C)nc12` [Example 6, N-(8-((2,6-dimethylbenzyl)amino)-2,3-dimethylimidazo[1,2-a]pyridin-6-yl)azetidine-1-carboxamide], 50 to 100 nM. `Cc1cccc(C)c1CNc1cc(NC(=O)C(C)C)cn2c(C)c(C)nc12` [Example 7, N-(8-((2,6-dimethylbenzyl)amino)-2,3-dimethylimidazo[1,2-a]pyridin-6-yl)isobutyramide] showed an IC50 of 100 to 500 nM. Molecule `Cc1cccc(C)c1CNc1cc(NC(=O)C(C)(C)C)cn2c(C)c(C)nc12` [Example 8, N-(8-((2,6-dimethylbenzyl)amino)-2,3-dimethylimidazo[1,2-a]pyridin-6-yl)pivalamide] came in with an IC50 of more than 500 nM. `Cc1cccc(C)c1CNc1cc(NC(=O)C(F)F)cn2c(C)c(C)nc12` [Example 9, N-(8-((2,6-dimethylbenzyl)amino)-2,3-dimethylimidazo [1,2-a]pyridin-6-yl)-2,2-difluoroacetamide] had an IC50 of more than 500 nM.

`Cc1cccc(C)c1CNc1cc(NC(=O)CN)cn2c(C)c(C)nc12.Cl` [Example 10, 2-amino-N-(8-((2,6-dimethylbenzyl)amino)-2,3-dimethylimidazo[1,2-a]pyridin-6-yl)acetamide hydrochloride] gave an IC50 of less than 50 nM. The molecule `Cc1cccc(C)c1CNc1cc(NC(=O)N2CCCC2)cn2c(C)c(C)nc12` [Example 11, N-(8-((2,6-dimethylbenzyl)amino)-2,3-dimethylimidazo[1,2-a]pyridin-6-yl)pyrrolidine-1-carboxamide] had an IC50 of 100 to 500 nM. Same read-out and setting: the figure for `Cc1cccc(C)c1CNc1cc(NC(=O)C23CC(C2)C3)cn2c(C)c(C)nc12` [Example 12, N-(8-((2,6-dimethylbenzyl)amino)-2,3-dimethylimidazo[1,2-a]pyridin-6-yl)bicyclo[1.1.1]pentane-1-carboxamide] is 100 to 500 nM; for `CCC(=O)Nc1cc(NCc2c(C)cccc2C)c2nc(C)c(C)n2c1` [Example 13, N-(8-((2,6-dimethylbenzyl)amino)-2,3-dimethylimidazo[1,2-a]pyridin-6-yl)propionamide] it is 50 to 100 nM. `Cc1cccc(C)c1CNc1cc(NC(=O)c2ncco2)cn2c(C)c(C)nc12` [Example 14, N-(8-((2,6-dimethylbenzyl)amino)-2,3-dimethylimidazo[1,2-a]pyridin-6-yl)oxazole-2-carboxamide] showed an IC50 of 100 to 500 nM. Consider `Cc1cccc(C)c1CNc1cc(NC(=O)C(C)(F)F)cn2c(C)c(C)nc12` [Example 16, N-(8-((2,6-dimethylbenzyl)amino)-2,3-dimethylimidazo[1,2-a]pyridin-6-yl)-2,2-difluoropropanamide], for which the concentration for half-maximal inhibition (IC50) was 100 to 500 nM. Turning to `Cc1cccc(C)c1CNc1cc(NC(=O)C2CC(F)C2)cn2c(C)c(C)nc12` (centres unmarked) [Example 17, N-(8-((2,6-dimethylbenzyl)amino)-2,3-dimethylimidazo[1,2-a]pyridin-6-yl)-3-fluorocyclobutane-1-carboxamide], the IC50 was in the range of 100 to 500 nM. Still for that read-out and setting: the result for `Cc1cccc(C)c1CNc1cc(NS(=O)(=O)C2CCC2)cn2c(C)c(C)nc12` [Example 18, N-(8-((2,6-dimethylbenzyl)amino)-2,3-dimethylimidazo[1,2-a]pyridin-6-yl)cyclobutanesulfonamide] reads more than 500 nM; that for `Cc1cccc(C)c1CNc1cc(NC(=O)[C@H](C)N)cn2c(C)c(C)nc12` [Example 19, (S)-2-amino-N-(8-((2,6-dimethylbenzyl)amino)-2,3-dimethylimidazo[1,2-a]pyridin-6-yl)propanamide hydrochloride], 50 to 100 nM; that for `Cc1cccc(C)c1CNc1cc(NC(=O)[C@@H](C)N)cn2c(C)c(C)nc12` [Example 20, (R)-2-amino-N-(8-((2,6-dimethylbenzyl)amino)-2,3-dimethylimidazo[1,2-a]pyridin-6-yl)propanamide hydrochloride], 50 to 100 nM.

`CCNC(=O)Nc1cc(NCc2c(C)cccc2C)c2nc(C)c(C)n2c1` [Example 22, 1-(8-((2,6-dimethylbenzyl)amino)-2,3-dimethylimidazo[1,2-a]pyridin-6-yl)-3-ethylurea] returned an IC50 of 50 to 100 nM.

For the molecule `Cc1cccc(C)c1CNc1cc(NC(=O)NC2CCC2)cn2c(C)c(C)nc12` [Example 23, 1-cyclobutyl-3-(8-((2,6-dimethylbenzyl)amino)-2,3-dimethylimidazo[1,2-a]pyridin-6-yl)urea hydrochloride], the IC50 was in the range of 50 to 100 nM. For `Cc1cccc(C)c1CNc1cc(NC(=O)NC2CC2)cn2c(C)c(C)nc12.Cl` [Example 24, 1-cyclopropyl-3-(8-((2,6-dimethylbenzyl)amino)-2,3-dimethylimidazo[1,2-a]pyridin-6-yl)urea hydrochloride], the IC50 is less than 50 nM.

`CC(=O)OCC(=O)Nc1cc(NCc2c(C)cccc2C)c2nc(C)c(C)n2c1` [Example 25, 2-((8-((2,6-dimethylbenzyl)amino)-2,3-dimethylimidazo[1,2-a]pyridin-6-yl)amino)-2-oxoethyl acetate] gave an IC50 of 100 to 500 nM.

Molecule `Cc1cccc(C)c1CNc1cc(NC(=O)C(C)(C)N)cn2c(C)c(C)nc12` [Example 27, 2-amino-N-(8-((2,6-dimethylbenzyl)amino)-2,3-dimethylimidazo[1,2-a]pyridin-6-yl)-2-methylpropanamide hydrochloride] returned an IC50 of 50 to 100 nM. `Cc1cccc(C)c1CNc1cc(N2CCC2=O)cn2c(C)c(C)nc12` [Example 28, 1-(8-((2,6-dimethylbenzyl)amino)-2,3-dimethylimidazo[1,2-a]pyridin-6-yl)azetidin-2-one] registered an IC50 of more than 500 nM. The molecule `Cc1cccc(C)c1CNc1cc(NC(=O)NC23CC(C2)C3)cn2c(C)c(C)nc12` [Example 29, 1-(bicyclo[1.1.1]pentan-1-yl)-3-(8-((2,6-dimethylbenzyl)amino)-2,3-dimethylimidazo[1,2-a]pyridin-6-yl)urea hydrochloride] showed a half-inhibitory concentration (IC50) of more than 500 nM. `Cc1cccc(C)c1CNc1cc(NC(=O)NCC2CC2)cn2c(C)c(C)nc12` [Example 30, 1-(cyclopropylmethyl)-3-(8-((2,6-dimethylbenzyl)amino)-2,3-dimethylimidazo[1,2-a]pyridin-6-yl)urea hydrochloride] came in with an IC50 of 100 to 500 nM. Still for that read-out and setting: the figure for `Cc1cccc(C)c1CNc1cc(NC(=O)NC(C)C)cn2c(C)c(C)nc12` [Example 31, 1-(8-((2,6-dimethylbenzyl)amino)-2,3-dimethylimidazo[1,2-a]pyridin-6-yl)-3-isopropylurea hydrochloride] is 100 to 500 nM; for `CCN(C)C(=O)Nc1cc(NCc2c(C)cccc2C)c2nc(C)c(C)n2c1` [Example 32, 3-(8-((2,6-dimethylbenzyl)amino)-2,3-dimethylimidazo[1,2-a]pyridin-6-yl)-1-ethyl-1-methylurea hydrochloride] it is 50 to 100 nM; for `CNC(=O)Nc1cc(NCc2c(C)cccc2C)c2nc(C)c(C)n2c1` [Example 33, hydrochloride] it is less than 50 nM. On the same count and under the same terms, the result for `CCOC(=O)CC(=O)Nc1cc(NCc2c(C)cccc2C)c2nc(C)c(C)n2c1` [Example 34, ethyl 3-((8-((2,6-dimethylbenzyl)amino)-2,3-dimethylimidazo[1,2-a]pyridin-6-yl)amino)-3-oxopropanoate] reads more than 500 nM; that for `Cc1cccc(C)c1CNc1cc(NC(=O)[C@@H]2CCN2)cn2c(C)c(C)nc12` [Example 35, (S)-N-(8-((2,6-dimethylbenzyl)amino)-2,3-dimethylimidazo[1,2-a]pyridin-6-yl)azetidine-2-carboxamide hydrochloride], 50 to 100 nM.

The same test, now with this note: result in words.
Consider `Cc1cccc(C)c1CNc1cc(Br)cn2c(C)c(C)nc12` [Comparative Example 1, reference compound], for which the “inhibitory activity against proton pump activity” value (shortened to “inhibitory activity”) is “weak inhibitory activity”. Regarding `COC(=O)c1cc(NCc2c(C)cccc2C)c2nc(C)c(C)n2c1` [Comparative Example 2, reference compound], the “inhibitory activity” value is listed as “weak inhibitory activity”. Regarding `Cc1cccc(C)c1CNc1cc(NC(=O)CN)cn2c(C)c(C)nc12.Cl` [Example 10, 2-amino-N-(8-((2,6-dimethylbenzyl)amino)-2,3-dimethylimidazo[1,2-a]pyridin-6-yl)acetamide hydrochloride], the “inhibitory activity” value was “excellent inhibitory properties”. On the same count and under the same terms, the result for `Cc1cccc(C)c1CNc1cc(NC(=O)NC2CC2)cn2c(C)c(C)nc12.Cl` [Example 24, 1-cyclopropyl-3-(8-((2,6-dimethylbenzyl)amino)-2,3-dimethylimidazo[1,2-a]pyridin-6-yl)urea hydrochloride] reads “excellent inhibitory properties”.

For `CNC(=O)Nc1cc(NCc2c(C)cccc2C)c2nc(C)c(C)n2c1` [Example 33, hydrochloride], the “inhibitory activity” value is recorded as “excellent inhibitory properties”.
